Assay results taken from the NIST ThermoML archive (doi:10.1021/je100851w).
Numbers after ± are expanded uncertainties.

Assay: xn = mol fraction of the nth substance listed
Details: 363.24 K, Fluid (supercritical or subcritical phases), Vibrating tube method, x1 = 0.2691

S [hydrogen sulfide] + CCC
Details | mass density [kg/m3]
3752 kPa | 76.3 ± 0.1
3878 kPa | 80.7 ± 0.2
3964 kPa | 84.5 ± 0.2
4056 kPa | 88.4 ± 0.2
4156 kPa | 92.4 ± 0.2
4237 kPa | 96.3 ± 0.2
4354 kPa | 102.5 ± 0.2
4468 kPa | 108.5 ± 0.3
4619 kPa | 120.8 ± 0.3
4747 kPa | 132.2 ± 0.4
4838 kPa | 142.5 ± 1.1
4877 kPa | 152.9 ± 1.2
4905 kPa | 166.8 ± 1.4
4932 kPa | 180.1 ± 1.9
4954 kPa | 190.9 ± 1.9
4982 kPa | 203.7 ± 1.8
5002 kPa | 216 ± 1.8
5021 kPa | 229.7 ± 1.7
5043 kPa | 241.1 ± 1.7
5101 kPa | 254 ± 1.4
5146 kPa | 266.2 ± 1.1
5182 kPa | 277.5 ± 1.1
5220 kPa | 288.7 ± 1.1
5267 kPa | 299.6 ± 1
5324 kPa | 307.2 ± 0.8
5360 kPa | 313.4 ± 0.6
5410 kPa | 319.7 ± 0.6
5474 kPa | 326 ± 0.5
5549 kPa | 332.3 ± 0.5
5632 kPa | 339.4 ± 0.4
5762 kPa | 346.5 ± 0.4
5914 kPa | 353.3 ± 0.4
6056 kPa | 359.2 ± 0.4
6228 kPa | 365.4 ± 0.4
6441 kPa | 371.6 ± 0.4
6679 kPa | 377.7 ± 0.4
6961 kPa | 383.9 ± 0.4
7276 kPa | 390 ± 0.4
7639 kPa | 396.1 ± 0.4
8055 kPa | 402.1 ± 0.4
8511 kPa | 408 ± 0.4
9002 kPa | 413.7 ± 0.5
9557 kPa | 419.4 ± 0.5
10183 kPa | 425.2 ± 0.5
10878 kPa | 431.1 ± 0.5
11648 kPa | 436.9 ± 0.5
12515 kPa | 442.7 ± 0.6
13444 kPa | 448.5 ± 0.6
14452 kPa | 454.1 ± 0.6
15616 kPa | 460.1 ± 0.6
16807 kPa | 465.7 ± 0.7
18163 kPa | 471.5 ± 0.7
19596 kPa | 477.1 ± 0.8
20717 kPa | 481.2 ± 0.8
21739 kPa | 484.7 ± 0.8
22936 kPa | 488.7 ± 0.9
24149 kPa | 492.4 ± 0.9
25434 kPa | 496.2 ± 0.9
26773 kPa | 500 ± 1
28220 kPa | 503.8 ± 1
29831 kPa | 507.9 ± 1
31352 kPa | 511.5 ± 1.1
32889 kPa | 515 ± 1.1
34710 kPa | 519 ± 1.1
